Measured values reported in patent US8748419B2, “Treating obesity with muscarinic receptor M1 antagonists” (priority 2006, dated 2014).

Experiments:
[1] = Appetite suppression: high fat food consumption in fasted rats (4-Hour and 24-Hour Consumption); assay type: in vivo, Sprague-Dawley rats
Text: Appetite Suppression: Three-month-old (300-350 grams) male, Sprague-Dawley rats (individually housed) were used to assess compounds for their appetite suppressant effects. Rats were acclimatized to a “high fat” food diet (BioServ Diet #F3282 or Research Diets #12451) for two weeks prior to testing (access to food and water ad libitum). One day prior to the experiment (at 5:00 PM), food was removed from the cages in order to motivate feeding when the food was returned the following morning (water remained available throughout the experiment). Prior to presentation of the food, rats (n=8-10/dose group) were dosed intraperitoneally (ip) or orally (po) with the compound under investigation, returned to their home cage and immediately given a pre-weighed amount of food. Four hours after administration, the food was removed from the cage, weighed, recorded (4-Hour Consumption) and returned to the rat until the following morning. Twenty-four hours after administration, the remaining food was again weighed and recorded (24-Hour Consumption). Cumulative consumption (expressed in grams) was calculated for both the four and the twenty-four hour intervals. In this assay, vehicle-treated rats typically consume approximately 8 grams over the four-hour interval and approximately 25 grams over the twenty-four-hour interval.
Treatment effects are presented in Table 1 and FIGS. 1-5 (4-Hour Consumption) and Table 2 and FIGS. 6-10 (24-Hour Consumption). The effects are given as both Raw Consumption (in grams ±SEM [1 standard error of the mean]) and as % Reduction in 4-Hour or 24-Hour Consumption=[1-(Consumption following Drug Treatment/Consumption following Vehicle Treatment)]×100%. Similar superscripts in the Dose column of Tables 1 and 2 denote values derived from the same experiment (to facilitate comparisons between individual treatments and co-administrations). Statistical analyses were performed using a 1-way ANOVA (analysis of variance) followed by a Bonferroni multiple comparison test with the overall alpha set at 0.05. In Tables 1 and 2, asterisks (*) denote significant effects compared to vehicle-treated rats, while letters (a or b) denote significant effects compared to rats treated with a single compound (“a” for significance from antidepressant and “b” for significance from telenzepine). In Tables 1 and 2, one symbol denotes p<0.05, two symbols denote p<0.01 and three symbols denote p<0.001). The symbols used for denoting statistical significance may be different in the corresponding figures.

[2] = Reduction in weight gain of rats on a high fat diet (two-week treatment); assay type: in vivo, Sprague-Dawley rats; details: for % Reduction: treatment minus vehicle % weight gain
Method: Reduction in Weight Gain: Three- to four-month-old (475-550 grams) male, Sprague-Dawley rats (individually housed) were used to assess compounds for their ability to prevent weight gain. At the onset of chronic experiments, rats had been maintained (ad libitum access) on a “high fat” diet (BioServ Diet #F3282 or Research Diets #12451) for approximately one month. Individual body weights and water consumptions were recorded three times per week throughout the duration of the experiment. After approximately two weeks of data collection, rats were counter-balanced to produce treatment groups with equivalent mean body weights. Under isofluorane-induced anesthesia, rats were surgically implanted (subscapular, subcutaneous [sc] placement) with osmotic mini-pumps (Alzet 2mL2) containing the appropriate drug concentration (based on mean body weights and calculated durations of delivery). Alternatively, for studies using the oral route of administration, rats were dosed by gavage daily over 14 days at a volume of 3 mL/kg. Data collection was continued under drug treatment for approximately two more weeks. Change in body weight (expressed in grams) was calculated for the treatment interval. In this assay, vehicle-treated rats typically gain approximately 35-40 grams (+9%) over the two-week interval. Treatment effects are presented in Table 3 as % Weight Gain=[(Body Weight at End of Drug Infusion−Baseline Body Weight)/Baseline Body Weight]×100%, for both Vehicle and Treatment groups; as well as % Reduction=(% Weight Gain for Treatment group−% Weight Gain for Vehicle group). Body weights throughout the treatment period are presented in FIGS. 11-15 as the percentage of baseline body weight. Similar superscripts in the Dose column of Table 3 denote values derived from the same experiment (to facilitate comparisons between individual treatments and co-administrations). Statistical analyses were performed using a 1-way ANOVA (analysis of variance) followed by a Bonferroni multiple comparison test with the overall alpha set at 0.05. In Table 3, asterisks (*) denote significant effects compared to vehicle-treated rats, while letters (a or b) denote significant effects compared to rats treated with a single compound (“a” for significance from antidepressant and “b” for significance from telenzepine). In Table 3, one symbol denotes p<0.05, two symbols denote p<0.01 and three symbols denote p<0.001). The symbols used for denoting statistical significance may be different in the corresponding figures.

[3] = directly injected into the midbrain; cited from earlier work
[4] = 24 h, 10 mg/kg ip, experiment e
[5] = 24 h, 10 mg/kg po, experiment c
[6] = 24 h, 30 mg/kg po, experiment c

## Cc1scc2c1N(C(=O)CN1CCN(C)CC1)c1ccccc1NC2=O [Telenzepine, 4,9-Dihydro-3-methyl-4-[(4-methyl-1-piperazinyl)acetyl]-10H-thieno[3,4-b][1,5]benzodiazepin-10-one]
[1]; 4 h, 1 mg/kg ip, experiment b
  % Reduction in Consumption: 43%
  Treatment Consumption: 4.0 ± 0.50 g/4 Hrs
[1]; 4 h, 1 mg/kg ip, experiment e
  % Reduction in Consumption: 38%
  Treatment Consumption: 5.7 ± 0.63 g/4 Hrs
[1]; 4 h, 3 mg/kg ip, experiment a
  Treatment Consumption: 4.2 ± 0.36 g/4 Hrs
[1]; 4 h, 3 mg/kg ip, experiment a, 3 mg/kg
  % Reduction in Consumption: 45%
[1]; 4 h, 3 mg/kg ip, experiment a, listed as telenzepine, 3 mg/kg
  % Reduction in Consumption: 45%
[1]; 4 h, 3 mg/kg ip, experiment b
  Treatment Consumption: 4.5 ± 0.40 g/4 Hrs
[1]; 4 h, 3 mg/kg ip, experiment b, 3 mg/kg
  % Reduction in Consumption: 35%
[1]; 4 h, 3 mg/kg ip, experiment b, listed as telenzepine, 3 mg/kg
  % Reduction in Consumption: 35%
[1]; 4 h, 3 mg/kg ip, experiment e
  % Reduction in Consumption: 40%
  Treatment Consumption: 5.5 ± 0.60 g/4 Hrs
[1]; 4 h, 10 mg/kg ip, experiment e
  % Reduction in Consumption: 56%
  Treatment Consumption: 4.1 ± 0.55 g/4 Hrs
[1]; 4 h, 10 mg/kg po, experiment c
  % Reduction in Consumption: 28%
  Treatment Consumption: 7.4 ± 0.64 g/4 Hrs
[1]; 4 h, 30 mg/kg po, experiment c
  % Reduction in Consumption: 36%
  Treatment Consumption: 6.6 ± 1.01 g/4 Hrs
[1]; 24 h, 1 mg/kg ip, experiment b
  % Reduction in Consumption: 16%
  Treatment Consumption: 20.9 ± 0.78 g/24 Hrs
[1]; 24 h, 1 mg/kg ip, experiment e
  % Reduction in Consumption: 18%
  Treatment Consumption: 23.6 ± 1.01 g/24 Hrs
[1]; 24 h, 3 mg/kg ip, experiment a
  Treatment Consumption: 17.5 ± 1.38 g/24 Hrs
[1]; 24 h, 3 mg/kg ip, experiment a, 3 mg/kg
  % Reduction in Consumption: 27%
[1]; 24 h, 3 mg/kg ip, experiment a, listed as telenzepine, 3 mg/kg
  % Reduction in Consumption: 27%
[1]; 24 h, 3 mg/kg ip, experiment b
  Treatment Consumption: 19.4 ± 0.94 g/24 Hrs
[1]; 24 h, 3 mg/kg ip, experiment b, 3 mg/kg
  % Reduction in Consumption: 22%
[1]; 24 h, 3 mg/kg ip, experiment b, listed as telenzepine, 3 mg/kg
  % Reduction in Consumption: 22%
[1]; 24 h, 3 mg/kg ip, experiment e
  % Reduction in Consumption: 32%
  Treatment Consumption: 19.7 ± 0.95 g/24 Hrs
[1]; [4]
  % Reduction in Consumption: 50%
  Treatment Consumption: 14.5 ± 1.29 g/24 Hrs
[1]; [5]
  % Reduction in Consumption: 39%
  Treatment Consumption: 18.5 ± 2.33 g/24 Hrs
[1]; [6]
  % Reduction in Consumption: 56%
  Treatment Consumption: 13.3 ± 2.69 g/24 Hrs
[1]; all doses tested (ip), given alone
  effect on consumption: significantly reduced consumption
[2]; 0.3 mg/kg sc, experiment c
  Treatment: % Weight Gain: 4.4 ± 0.6%
  % Reduction: −0.9%
[2]; 1 mg/kg po, experiment d
  Treatment: % Weight Gain: 3.3 ± 0.6%
  % Reduction: −3.1%
[2]; 3 mg/kg of telenzepine alone
  reduction in body weight compared to vehicle treated rats: 3.8%
[2]; 3 mg/kg sc, experiment a
  Treatment: % Weight Gain: 1.5 ± 1.0%
  % Reduction: −7.1%
[2]; 3 mg/kg sc, experiment b
  Treatment: % Weight Gain: 4.3 ± 0.8%
  % Reduction: −3.8%
[3]
  GABA efflux: reduced GABA efflux
